Non-standard residues stand in square brackets, D forms with d. Residues, ends and D or L forms follow the SMILES beside them.
Columns and labels:
[1] = test system: articular cartilage of ACLT rat knee; experiment: Micro-magnetic resonance imaging of knee, cartilage mean T2; format: in vivo; conditions: ACLT rats, four weeks post-operatively; statistical significance between groups not achieved
Excerpt: (§1) At four or eight weeks post-surgery, animals were sacrificed by cardiac puncture under deep isoflurane anaesthesia. The right knee was dissected, and 40-mm-long samples were cut and stored in phosphate-buffered saline until scanned by digital micro-X-ray (DX) and/or micro-magnetic resonance (MR) imaging. Samples were dissected the same day as the radiological scans.
A subset of animals were sacrificed four weeks post-operatively and their right knees were imaged by micro-MR. Imaging was performed using a Bruker PharmaScan™ (Ettlingen, Germany) 7 Tesla MR scanner at the McGill University Small Animal Imaging Lab (Montreal, QC). Knee samples were placed in a custom-made support inside a 15-mL centrifuge tube, which was then filled with the MR-inert buffer FC-770™ (3M Fluorinert™ Electronic Liquid). Samples were introduced into a 1H mouse brain radio frequency (RF) coil (inner diameter 22 mm), and centred in the magnet. The RF coil was tuned and matched to the sample, and the magnet was then shimmed. The system was controlled via Bruker ParaVision™ software (version 5.0). […]
After acquisition, images were analyzed using OsiriX software (version 3.7.1). […] As well, images were analyzed for signs of cartilage decay, indicated by lower signal intensity of the articular surfaces. […]

[2] = test system: rat anterior cruciate ligament transection (ACLT) model of osteoarthritis; experiment: Cartilage and bone histomorphology (Safranin O/Fast Green) with OARSI histopathology scoring; format: in vivo; conditions: ACLT rats, eight weeks post-operatively, maximum value 24
Description: After radiological examination, knee samples were fixed in 10% neutral buffered formalin for two weeks, decalcified with RDO Rapid Decalcifier™ (Apex Engineering Products, Aurora, Ill.) for three days, circulated, and embedded in paraffin. Five-micron sagittal sections were acquired from the middle of the knee joint. Histomorphological staining was performed as previously described [Rosenberg L: Chemical basis for the histological use of safranin O in the study of articular cartilage. J Bone Joint Surg Am 1971, 53:69-82]: slides were deparrafinized, rehydrated, stained with Safranin O (which colours proteoglycans red) and Fast Green FCF (which colours collagens green), counterstained with hematoxylin, dehydrated, cleared, and mounted in Permount™. […]
Four slides from each condition were scored by two blinded examiners using the Osteoarthritis Research Society International (OARSI) histopathology assessment system [Pritzker K P H, Gay S, Jimenez S A, Ostergaard K, Pelletier J P, Revell P A, Salter D, van den Berg W B: Osteoarthritis cartilage histopathology: grading and staging. […]
OARSI scores were statistically analyzed by one-way ANOVA, with total scores taken as the dependent variable and treatment group as the independent variable. […]

[3] = test system: rat anterior cruciate ligament transection (ACLT) model of osteoarthritis; experiment: Digital micro-X-ray (DX) OA radiological scoring of knee joints; format: in vivo; conditions: ACLT rats; for Mean radiological score: DX views, maximum possible score nine; for radiological indices of disease progression (DX) versus saline-treated controls: 0.0020≦P≦0.0214
Excerpt: as §1
All knee samples were X-rayed using a Faxitron MX-20™ specimen X-ray system (Faxitron X-Ray Corporation, Lincolnshire, Ill.). Anteroposterior and lateral views were acquired at 5× magnification (10×10 μm pixel size) using a dose of 26 kV for 6 seconds. Images were analyzed using OsiriX™ software (version 3.7.1) [Rosset et al. OsiriX: an open-source software for navigating in multidimensional DICOM images. Journal of digital imaging (2004) 17(3): 205-16]. Radiological evidence of joint degradation, such as joint space narrowing and osteophyte formation, was evaluated. Radiological evidence of joint degradation was scored by two blinded examiners using an OA radiological score modified from Clark et al. [Clark R L, Cuttino JT Jr, Anderle S K, Cromartie W J, Schwab J H: Radiologic analysis of arthritis in rats after systemic injection of streptococcal cell walls. Arthritis Rheum 1979, 22:25-35.] and Esser et al. [Esser R E, Hildebrand A R, Angelo R A, Watts L M, Murphey M D, Baugh L E: Measurement of radiographic changes in adjuvant-induced arthritis in rats by quantitative image analysis. Arthritis Rheum 1995, 38:129-38.]. Bone demineralization, subchondral bone erosion, and heterotopic ossification were all scored on a scale from zero (normal) to three (marked degenerative changes). Total scores were calculated by summing the individual scores for each index, with a maximum possible score of nine.
OA radiological scores were statistically analyzed by one-way ANOVA, with total scores taken as the dependent variable and treatment group as the independent variable. Pairwise post-hoc testing with Holm correction was used to establish significance in between treatment groups. P-values less than 0.05 were considered statistically significant. Analyses were conducted using R (version 2.11.0) [R Development Core Team: R: A Language and Environment for Statistical Computing. Vienna, Austria: R Foundation for Statistical Computing 2010.].

COX-2 = COX-2 immunohistochemistry on articular cartilage of surgically induced OA; format: in vivo, rat; conditions: surgery-induced OA rats
Excerpt: FIGS. 11A-11D are photomicrographs depicting the effect of BQ-123+R-954 dual inhibition. […] Tissues were obtained from surgery induced OA in a rat model Top panel represent COX-2 immunodetection on tissues from non-treated lesioned animals (FIG. 11A); BQ-123 treatment (FIG. 11B); R-954 treatment (FIG. 11C); BQ-123+R-954 dual treatment (FIG. 11D). Specific immune staining for COX-2 protein is observed as a darker color. Surgery, pharmacological treatment, and tissue collection and processing were performed as described in Kaufman et al., Arthritis Research and Therapy, 2011, 13:R76. FIG. 11E is a bar graph depicting the percentage of COX-2-positive chondrocytes in each of the conditions (mean of 5 slides counted per condition).
Method: 5-micron sections were processed for immunohistochemical detection of cyclooxygenase COX-2 as described above.

bradykinin receptor B2 = bradykinin receptor B2 (Homo sapiens, UniProt P30411); conditions: patients with painful knee osteoarthritis, intra-articular; cited from earlier work
Sequence of bradykinin receptor B2 (P30411 whole entry): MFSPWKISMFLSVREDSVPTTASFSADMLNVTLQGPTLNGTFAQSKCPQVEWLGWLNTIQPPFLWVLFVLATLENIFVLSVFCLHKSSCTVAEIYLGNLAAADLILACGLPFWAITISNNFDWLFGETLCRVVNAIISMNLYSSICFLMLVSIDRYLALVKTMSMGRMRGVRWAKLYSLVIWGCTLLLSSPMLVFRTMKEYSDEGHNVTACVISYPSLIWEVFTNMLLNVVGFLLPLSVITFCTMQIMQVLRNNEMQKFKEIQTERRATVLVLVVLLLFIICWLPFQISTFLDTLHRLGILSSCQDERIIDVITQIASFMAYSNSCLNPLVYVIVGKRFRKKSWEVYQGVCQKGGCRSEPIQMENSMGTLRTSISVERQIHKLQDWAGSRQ

Compound: CC(C)C[C@@H]1NC(=O)[C@@H](C(C)C)NC(=O)[C@@H]2CCCN2C(=O)[C@@H](CC(=O)O)NC(=O)[C@@H](Cc2c[nH]c3ccccc23)NC1=O [BQ-123] (cyclo(L[dW][dD]P[dV]))
- Mean T2 value [1]: 61.13 ms
- Mean OARSI score [2]: 10.25
- Mean radiological score [3]: 2.83
- radiological indices of disease progression (DX) versus saline-treated controls [3]: significantly ameliorated radiological indices of disease progression
- COX-2 staining on articular cartilage (COX-2): diminished

Compound: NC(N)=NCCC[C@@H](N)C(=O)N[C@@H](CCCN=C(N)N)C(=O)N1CCC[C@H]1C(=O)N1C[C@H](O)C[C@H]1C(=O)NCC(=O)N[C@@H](Cc1cccs1)C(=O)N[C@@H](CO)C(=O)N1Cc2ccccc2C[C@@H]1C(=O)N1[C@H](C(=O)N[C@@H](CCCN=C(N)N)C(=O)O)C[C@@H]2CCCC[C@@H]21 [Icatibant]
- analgesia in knee OA (bradykinin receptor B2): provided local analgesia
- anti-inflammatory effect in knee OA (bradykinin receptor B2): no anti-inflammatory effect could be detected

Compound: C=C(N)NCC[C@@H](CC(=O)[C@@H](CCCC)CC(C)=O)C(=O)N1[C@H]2CCCC[C@@]2(C)C[C@H]1C(=O)N1CCC[C@@H]1C(=O)CCC(=O)NC(C)(Cc1ccccc1)C(=O)NC(CO)C(=O)C[C@H](Cc1cccc2ccccc12)C(=C)CC(C(=O)O)[C@H](C)CC (some centres unmarked) [R-954]
- Mean T2 value [1]: 64.38 ms
- Mean OARSI score [2]: 4.25
- Mean radiological score [3]: 2.50
- radiological indices of disease progression (DX) versus saline-treated controls [3]: significantly ameliorated radiological indices of disease progression

From patent US20120202744A1, “DUAL ANTAGONISM OF ENDOTHELIN TYPE A AND BRADYKININ B1 RECEPTORS FOR TREATING PAIN AND PREVENTING CARTILAGE DEGRADATION” (priority 2011, published 2012)
